Laboratory results as given in patent US12522575B2, “2-diarylmethyl-4-aminotetrahydropyran derivatives and related compounds as anticancer, antiinflammatory, antifibrotic and neuroprotective agents” (Atux Iskay LLC, priority 2021, dated 2026).

What was measured:
Type in all cases: cell-based
PP2A = PP2A responses in lung fibroblasts; conditions: 1 μM, 24 hours
Description: Each dot represents cells from a different subject. Student t-tests or 2-way ANOVA were performed and a p-value […] was denoted as * when comparing to the vehicle treated groups.
Each dot represents cells from a different subject. Student t-tests were performed and a p-value […] was denoted as * when comparing non-smoker (NS) to IPF vehicle groups or ** when comparing vehicle IPF to compound IPF groups. Left plot: cell source-healthy non-smoker; Middle plot: cell source—IPF; Right: cell source—IPF.
IPF fibroblasts were exposed to v or 1 micromolar of the ATUX compounds media for 24 hours and increase in PP2A activity is shown in right hand group. PP2A activity in vehicle treated fibroblasts from healthy nonsmokers is shown for comparison in the left hand group.

[1] = tested on: lung fibroblasts from healthy subjects; assay: Fibrosis associated gene expression in lung fibroblasts; conditions: 1 μM, 24 hours, TGF-β (FIG. 1)
Description: Each dot represents cells from a different subject. Student t-tests or 2-way ANOVA were performed and a p-value […] was denoted as * when comparing to the vehicle treated groups or ** when comparing to the TGF-β vehicle groups.
Compounds of the present invention activate PP2A responses in fibroblasts from healthy subjects. Lung fibroblasts from 6 subjects were stimulated with 1 micromolar of example compounds for 24 hours.

ERK and JNK = ERK and JNK signaling in lung fibroblasts (immunoblot, densitometry); conditions: 1 μM, 24 hours, lung fibroblasts (FIGS. 2 and 3)
Description: Each dot represents cells from a different subject. Student t-tests or 2-way ANOVA were performed and a p-value […] was denoted as ** when comparing between phosphorylated and unphosphorylated groups.
Compounds of the present invention reactivate PP2A responses in fibroblasts from healthy and IPF subjects.

[2] = tested on: D425 medulloblastoma cells; assay: D425 cell viability / proliferation (CellTiter-Glo); conditions: Medulloblastoma cell; 48 hours treatment, CellTiter-Glo; read-out: IC50 for D425 cell growth
Description: D425 medulloblastoma cells were purchased from SigmaAldrich. D425 meduloblastoma cells were cultured in improved Dulbecco's modified Eagle's medium (DMEM) Richter's modification supplemented with 20% fetal bovine serum and 1% Penicillin-streptomycin. Incubation was performed at 37° C. and 5% CO2.
D425 cells were seeded at 3000-3500 cells/90 ul growth medium per well on 96-well tissue culture plates. Cells were incubated overnight to allow them to recover. Next day cells were treated with tested compounds and incubated for 48 hours.
Cell Proliferation assays in triplicate were performed at each concentration. Compounds test range was 1-30 μM (0, 5, 10, 15, 20, 25, and 30). The compounds were dissolved in DMSO. A series of dilutions were made in 1% DMSO in growth medium so that the final concentration of DMSO is 0.1% in all of treatments.
After treatment, cells were allowed to equilibrate at room temperature for one hour. Cell proliferation was measured by Luminescence quantification using Promega CellTiter-Glo Luminescent Cell Viability Assay. To perform the assay, 90 ul of Celltiter-Glo substrate was added to each well, plates were shake for 2 minutes and allowed to equilibrate for 10 minutes at room temperature. Luminescence intensity was measured using the Spectramax i3x plate reader.
The Luminescence intensity data were analyzed using the computer software Graphpad Prism. In the absence of the compound, the luminescence intensity (Lt) in each data set was defined as 100% cell viability. The percent cell in the presence of each compound was calculated according to the following equation: % Cell=L/Lt, were L=the luminescence intensity in the presence of the compound.
The values of % cell versus a series of compound concentrations (0, 5, 10, 15, 20, 25, and 30 μM) were then plotted using Nonlinear regression analysis of Sigmoidal dose-response curve. IC50 value was determined by the concentration causing a half-maximal percent activity.

O=S(=O)(NC1CCOC(C2c3ccc(F)cc3CCc3cc(F)ccc32)C1)c1ccc(OC(F)(F)F)cc1 (centres unmarked) [Example 6, N-(2-(2,8-difluoro-10,11-dihydro-5H-dibenzo[a,d][7]annulen-5-yl)tetrahydro-2H-pyran-4-yl)-4-(trifluoromethoxy)benzenesulfonamide]
PP2A responses in lung fibroblasts from healthy subjects (PP2A; vs vehicle (FIG. 4)): reactivation of PP2A responses | PP2A responses in lung fibroblasts from idiopathic pulmonary fibrosis (IPF) (PP2A; vs vehicle IPF (FIG. 5)): reactivation of PP2A responses | pro-fibrotic gene expression [1]: suppression of pro-fibrotic gene expression | ERK and JNK signaling (ERK and JNK): reduced ERK and JNK signaling | IC50 [2]: 5.8 µM
